11 compounds from patent publication US20260274892A1, “MACROCYCLIC BROAD SPECTRUM ANTIBIOTICS” (RQx Pharmaceuticals, Inc., priority 2017, published 2026) can be followed below.

This experiment deals with Escherichia coli ATCC 25922. Briefly: Minimum inhibitory concentration (MIC), CLSI broth micro-dilution, E. coli. The format is cell-based. To be noted: Escherichia coli. How it is done:
In vitro antimicrobial activity of each compound was determined by measuring minimal inhibitor concentrations (MICs) using the broth micro-dilution technique as approved by the Clinical and Laboratory Standards Institute (CLSI) (Methods for Dilution Antimicrobial Susceptibility Tests for Bacteria that Grow Aerobically; Approved Standard-Eighth Edition. CLSI document M07-A8. Wayne, PA: Clinical and Laboratroy Standards; 2009). Antibacterial activity was measure against two strains of bacteria: a Methicillin Resistant Staphylococcus aureus strain USA 200, (S. aureus) and Escherichia coli ATCC 25922 (E. coli), a clinically relevant Gram-negative strain. Cells were inoculated onto plates of Trypyticase Soy Agar or Luria Agar respectively and grown at 35° C. for 20 hours. Inocula suspensions were prepared by scraping cells into 1 mL of testing media (cation adjusted Mueller Hinton Broth supplemented with 0.002% v/v Tween-80) and diluting to a final OD600nm of 0.01.
Test compounds were prepared in DMSO at a concentration of 10 mg/mL. In protocol 1, the compound stocks were diluted into testing media at a concentration of 64 µg/ml and serial 2-fold dilutions were made in the same media, in 96-well U bottom microtiter dishes, for a total of 10 compound concentrations. In protocol 2, the compound stocks were diluted into testing media at a concentration of 4 µg/mL and serial 2-fold dilutions were made in the same media, in 96-well U bottom microtiter dishes, for a total of 10 compound concentrations. In protocol 3, compound stocks were diluted into testing media at a concentration of 0.5 μg/mL, with serial 2-fold dilutions conducted as described above. In protocol 4, compound stocks were diluted into testing media at a concentration of […], with serial 2-fold dilutions conducted as described above. Inocula suspensions were added to the 2-fold serial dilutions of test compounds to a final density of GD OD600nm of 0.0005 and incubated at 35° C. for 22 hours.

Where [1] appears, read: ATCC25922, 22 h, Table 7, cation adjusted Mueller Hinton Broth + 0.002% Tween-80, 35° C.
Setting [2] is: ATCC25922, 22 h, Table 6, cation adjusted Mueller Hinton Broth + 0.002% Tween-80, 35° C.

In the case of `Cc1nc(-c2ccc(OC3CCCCC3)cc2)nc(C)c1C(=O)N[C@@H](CNS(N)(=O)=O)C(=O)N(C)[C@@H]1C(=O)N[C@@H](C)C(=O)N[C@H](C(=O)NCC#N)Cc2ccc(OC[C@H](O)CN)c(c2)-c2cc1ccc2OC[C@H](O)CN` (racemic) [Compound 578, rac-(8S,11S,14S)-N-(cyanomethyl)-11-methyl-14-[methyl-[rac-(2S)-2-[[2-[4-(cyclohexoxy)phenyl]-4,6-dimethyl-pyrimidine-5-carbonyl]amino]-3-(sulfamoylamino)propanoyl]amino]-10,13-dioxo-3,18-bis[rac-(2R)-3-amino-2-hydroxy-propoxy]-9,12-diazatricyclo[13.3.1.12,6]icosa-1(18),2(20),3,5,15(19),16-hexaene-8-carboxamide], under setting [1], the MIC was 0.19 µM.
In the case of `Cc1nc(-c2ccc(C(C)(C)C)cc2)nc(C)c1C(=O)N[C@H](COC(C)(C)C)C(=O)N[C@@H](CCN)C(=O)N(C)[C@@H]1C(=O)N[C@@H](C)C(=O)N[C@H](C(=O)NCC#N)Cc2ccc(OCCN)c(c2)-c2cc1ccc2OCCN` (racemic) [Compound 468, rac-(8S,11S,14S)-3,18-bis(2-aminoethoxy)-N-(cyanomethyl)-11-methyl-14-[methyl-[rac-(2S)-4-amino-2-[[rac-(2R)-3-tert-butoxy-2-[[2-(4-tert-butylphenyl)-4,6-dimethyl-pyrimidine-5-carbonyl]amino]propanoyl]amino]butanoyl]amino]-10,13-dioxo-9,12-diazatricyclo[13.3.1.12,6]icosa-1(18),2(20),3,5,15(19),16-hexaene-8-carboxamide], the MIC (ATCC25922, Table 6, cation adjusted Mueller Hinton Broth + 0.002% Tween-80, 35° C., 22 hours) came to 1 µM.
Take `Cc1nc(-c2ccc(C(C)(C)C)cc2)nc(C)c1C(=O)N[C@@H](CCN)C(=O)N(C)[C@@H]1C(=O)N[C@@H](C)C(=O)N[C@H](C(=O)NCC#N)Cc2ccc(OCCN)c(c2)-c2cc1cc(NC(N)=O)c2O` (racemic) [Compound 621, rac-(8S,11S,14S)-3-(2-aminoethoxy)-N-(cyanomethyl)-18-hydroxy-11-methyl-14-[methyl-[rac-(2S)-4-amino-2-[[2-(4-tert-butylphenyl)-4,6-dimethyl-pyrimidine-5-carbonyl]amino]butanoyl]amino]-10,13-dioxo-17-ureido-9,12-diazatricyclo[13.3.1.12,6]icosa-1(18),2(20),3,5,15(19),16-hexaene-8-carboxamide]: the MIC under setting [1] is 0.25 µM.
Regarding `Cc1nc(-c2ccc(C(C)(C)C)cc2)nc(C)c1C(=O)N[C@@H](CNS(N)(=O)=O)C(=O)N(C)[C@@H]1C(=O)N[C@@H](C)C(=O)N[C@H](C(=O)NCC#N)Cc2cc(c(O)cc2OCCN)-c2cc1ccc2OCCN` (racemic) [Compound 628, rac-(8S,11S,14S)-5,18-bis(2-aminoethoxy)-N-(cyanomethyl)-3-hydroxy-11-methyl-14-[methyl-[rac-(2S)-2-[[2-(4-tert-butylphenyl)-4,6-dimethyl-pyrimidine-5-carbonyl]amino]-3-(sulfamoylamino)propanoyl]amino]-10,13-dioxo-9,12-diazatricyclo[13.3.1.12,6]icosa-1(18),2(20),3,5,15(19),16-hexaene-8-carboxamide], the MIC (ATCC25922, Table 7, cation adjusted Mueller Hinton Broth + 0.002% Tween-80, 35° C., 22 hours) amounted to 0.44 µM.
Take `CC(=O)Nc1cc(C(=O)N[C@@H](CCN)C(=O)N(C)[C@@H]2C(=O)N[C@@H](C)C(=O)N[C@H](C(=O)NCC#N)Cc3ccc(OCCN)c(c3)-c3cc2ccc3OCCN)c(C)nc1-c1ccc(C(C)(C)C)cc1` (racemic) [Compound 533, rac-(8S,11S,14S)-3,18-bis(2-aminoethoxy)-N-(cyanomethyl)-11-methyl-14-[methyl-[rac-(2S)-2-[[5-acetamido-6-(4-tert-butylphenyl)-2-methyl-pyridine-3-carbonyl]amino]-4-amino-butanoyl]amino]-10,13-dioxo-9,12-diazatricyclo[13.3.1.12,6]icosa-1(18),2(20),3,5,15(19),16-hexaene-8-carboxamide]: the MIC under setting [2] came out at 1.5 µM.
In the case of `Cc1nc(-c2ccc(C(C)(C)C)cc2)nc(C)c1C(=O)N[C@@H](CCN)C(=O)N(C)[C@@H]1C(=O)N[C@@H](C)C(=O)N[C@H](C(=O)NCC#N)Cc2ccc(N)c(c2)-c2cc1ccc2OCCN` (racemic) [Compound 624, rac-(8S,11S,14S)-3-amino-18-(2-aminoethoxy)-N-(cyanomethyl)-11-methyl-14-[methyl-[rac-(2S)-4-amino-2-[[2-(4-tert-butylphenyl)-4,6-dimethyl-pyrimidine-5-carbonyl]amino]butanoyl]amino]-10,13-dioxo-9,12-diazatricyclo[13.3.1.12,6]icosa-1(18),2(20),3,5,15(19),16-hexaene-8-carboxamide], the MIC under setting [1] was 0.38 µM.
With `Cc1nc(-c2ccc(C3CCCC3)cc2)nc(C)c1C(=O)N[C@@H](CCN)C(=O)N(C)[C@@H]1C(=O)N[C@@H](C)C(=O)N[C@H](C(=O)NCC#N)Cc2ccc(OCCN)c(c2)-c2cc1ccc2OCCN` (racemic) [Compound 302, rac-(8S,11S,14S)-3,18-bis(2-aminoethoxy)-N-(cyanomethyl)-11-methyl-14-[methyl-[rac-(2S)-4-amino-2-[[2-(4-cyclopentylphenyl)-4,6-dimethyl-pyrimidine-5-carbonyl]amino]butanoyl]amino]-10,13-dioxo-9,12-diazatricyclo[13.3.1.12,6]icosa-1(18),2(20),3,5,15(19),16-hexaene-8-carboxamide], the minimal inhibitory concentration (MIC) under setting [2] was found to be 0.5 µM.
Same read-out and setting: to `CCCCOc1c(F)c(F)c(-c2cc(C)c(C(=O)N[C@@H](CCN)C(=O)N(C)[C@@H]3C(=O)N[C@@H](C)C(=O)N[C@H](C(=O)NCC#N)Cc4ccc(OCCN)c(c4)-c4cc3ccc4OCCN)c(C)n2)c(F)c1F` (racemic) [Compound 367, rac-(8S,11S,14S)-3,18-bis(2-aminoethoxy)-N-(cyanomethyl)-11-methyl-14-[methyl-[rac-(2S)-4-amino-2-[[6-(4-butoxy-2,3,5,6-tetrafluoro-phenyl)-2,4-dimethyl-pyridine-3-carbonyl]amino]butanoyl]amino]-10,13-dioxo-9,12-diazatricyclo[13.3.1.12,6]icosa-1(18),2(20),3,5,15(19),16-hexaene-8-carboxamide] belongs 0.5 µM.
For `Cc1nc(-c2ccc(C(C)(C)C)cc2)nc(C)c1C(=O)N[C@@H](CCN)C(=O)N(C)[C@@H]1C(=O)N[C@@H](C)C(=O)N[C@H](C(=O)NCC#N)Cc2ccc(OC[C@H](O)CN)c(c2)-c2cc1cc(OCCN)c2O` (racemic) [Compound 587, rac-(8S,11S,14S)-17-(2-aminoethoxy)-N-(cyanomethyl)-18-hydroxy-11-methyl-14-[methyl-[rac-(2S)-4-amino-2-[[2-(4-tert-butylphenyl)-4,6-dimethyl-pyrimidine-5-carbonyl]amino]butanoyl]amino]-10,13-dioxo-3-[rac-(2R)-3-amino-2-hydroxy-propoxy]-9,12-diazatricyclo[13.3.1.12,6]icosa-1(18),2(20),3,5,15(19),16-hexaene-8-carboxamide], the MIC under setting [1] was determined as 0.094 µM.
`Cc1nc(-c2ccc(OC3CCCCCC3)cc2)cc(N)c1C(=O)N[C@@H](CCN)C(=O)N(C)[C@@H]1C(=O)N[C@@H](C)C(=O)N[C@H](C(=O)NCC#N)Cc2ccc(OCCN)c(c2)-c2cc1ccc2OCCN` (racemic) [Compound 545, rac-(8S,11S,14S)-3,18-bis(2-aminoethoxy)-N-(cyanomethyl)-11-methyl-14-[methyl-[rac-(2S)-4-amino-2-[[4-amino-6-[4-(cycloheptoxy)phenyl]-2-methyl-pyridine-3-carbonyl]amino]butanoyl]amino]-10,13-dioxo-9,12-diazatricyclo[13.3.1.12,6]icosa-1(18),2(20),3,5,15(19),16-hexaene-8-carboxamide]: the MIC under setting [2] was 1 µM.
On the same count and under the same terms, to `Cc1nc(-c2ccc(C3CCCCCC3)cc2)nc(C)c1C(=O)N[C@@H](CCN)C(=O)N(C)[C@@H]1C(=O)N[C@@H](C)C(=O)N[C@H](C(=O)NCC#N)Cc2ccc(OCCN)c(c2)-c2cc1ccc2OCCN` (racemic) [Compound 305, rac-(8S,11S,14S)-3,18-bis(2-aminoethoxy)-N-(cyanomethyl)-11-methyl-14-[methyl-[rac-(2S)-4-amino-2-[[2-(4-cycloheptylphenyl)-4,6-dimethyl-pyrimidine-5-carbonyl]amino]butanoyl]amino]-10,13-dioxo-9,12-diazatricyclo[13.3.1.12,6]icosa-1(18),2(20),3,5,15(19),16-hexaene-8-carboxamide] belongs 0.13 µM.
